The assay deals with human CRTH2 receptor (Homo sapiens (Human), UniProt Q9Y5Y4). Kind of assay: CRTH2 receptor radioligand binding assay (SPA, [3H]-PGD2 displacement). The following applies: antagonistic activities of selected compounds. The procedure:
The binding of CRTH2 antagonists is determined using membranes prepared from Chinese hamster ovary cells (CHO-K1 cells) transfected with the human CRTH2 receptor (CHO-K1-hCRTH2 cells, Perkin Elmer, Cat No ES-561-C). To produce cell membranes the CHO-K1-hCRTH2 cells are cultured in suspension in CHO SFMII medium supplemented with 400 μg/ml G418. The cells are harvested by centrifugation at 300 g for 10 min at room temperature. The cell pellet is resuspended in Phosphate Buffer Saline (PBS) including a protease inhibitor mix (Complete, Roche) and adjusted to a concentration of 10E7 cells/ml. The CHO-K1-hCRTH2 cells are disrupted by nitrogen […] to obtain the membrane preparation. Cell debris is removed by centrifugation (500 g at 4° C., 30 min) and the supernatant is transferred into fresh tubes followed by a second centrifugation at 40000 g for 1 h at 4° C. to sediment the membranes. The membranes are suspended in SPA incubation buffer (50 mM Tris HCl, 10 mM MgCl2, 150 mM NaCl, 1 mM EDTA, pH 7.4) without bovine serum albumin, homogenized by passing through a single use needle (Terumo, 23G×1″), and stored in aliquots at −80° C.
The CRTH2 receptor binding assay is performed in a scintillation proximity assay (SPA) format with the radioligand [^3H]-PGD2 (Perkin Elmer, NET616000MC). CHO-K1-hCRTH2 cell membranes are again homogenized by passing through a single use needle (Terumo, 23G×1″) and diluted in SPA incubation buffer in suitable concentrations (0.5-10 μg protein/well). The SPA assay is set up in 96 well microtiter plates (Perkin Elmer, CatNo. 6005040) in SPA incubation buffer with a final volume of 200 μl per well and final concentration of 50 mM Tris-HCl, 10 mM MgCl2, 150 mM NaCl, 1 mM EDTA pH 7.4, 0.1% bovine serum albumin). The SPA assay mixture contains 60 μl of the membrane suspension, 80 μl of Wheat Germ Agglutinin coated PVT beads (GE Healthcare, RPNQ-0001, 0.3 mg/well), 40 μl of [^3H]-PGD2 diluted in SPA buffer to a final concentration of 1 nM (50 000 dpm) and 20 μl of the test compound (dissolved in dimethylsulfoxid). The SPA assay mixture is incubated for 3 h at room temperature. Bound radioactivity is determined with a scintillation counter (Micro Beta Trilux, Wallac).
The binding of [^3H]-PGD2 to CHO-K1-hCRTH2 cell membranes is determined in the absence (total binding, Bo) and presence (non-specific binding, NSB) of unlabelled PGD2 (1 μM, Cayman Chemical, Cat No 12010) or a reference CRTH2 antagonist (10 μM CAY10471, Cayman Chemical, Cat No 10006735).
Determination of the affinity of a test compound is calculated by subtraction of the non-specific binding (NSB) from the total binding (Bo) or the binding in the presence of the test compound (B) at a given compound concentration. The NSB value is set to 100% inhibition. The Bo−NSB value is set to 0% inhibition.
% inhibition values were obtained at a defined compound concentration, e.g. at 1 μM, % inhibition of the test compound was calculated by the formula 100−((B−NSB)*100/(Bo−NSB)). % inhibition values above 100% are founded by assay variance.
Chain of human CRTH2 receptor (Q9Y5Y4 whole entry): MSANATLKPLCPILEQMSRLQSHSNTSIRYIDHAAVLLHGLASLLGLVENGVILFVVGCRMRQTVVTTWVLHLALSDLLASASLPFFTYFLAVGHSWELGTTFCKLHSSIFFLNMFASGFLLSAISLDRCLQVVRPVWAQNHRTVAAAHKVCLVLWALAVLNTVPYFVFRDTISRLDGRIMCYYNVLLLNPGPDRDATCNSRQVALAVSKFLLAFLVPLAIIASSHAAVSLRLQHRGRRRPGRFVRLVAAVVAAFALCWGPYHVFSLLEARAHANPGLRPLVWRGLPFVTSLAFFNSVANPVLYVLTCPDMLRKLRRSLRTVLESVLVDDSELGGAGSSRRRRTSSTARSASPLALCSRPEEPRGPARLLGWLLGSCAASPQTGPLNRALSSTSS
In turn, `CCc1nn(Cc2ccc(-c3nc4c(C)cccc4[nH]3)cc2F)c(CC)c1CC(=O)O` [Compound 83] had a Ki of 1.3 nM.

As for `Cc1nn(Cc2ccc(-c3cc4ccc(Cl)cc4[nH]3)cc2F)c(C)c1CC(=O)O` [Compound 6], affinity was put at a Ki of 0.8 nM. On to `Cc1nn(Cc2cccc(-c3cc4ccc(C(F)(F)F)cc4[nH]3)c2)c(C)c1CC(=O)O` [Compound 9], for which the Ki stood at 97.8 nM. `Cc1nn(Cc2ccc(-c3nc4c(F)cc(F)cc4[nH]3)cc2F)c(C)c1CC(=O)O` [Compound 77]: the inhibition constant Ki turned out to be 5.5 nM. The value for `Cc1nn(Cc2ccc(-c3nc4ccccc4[nH]3)cc2)c(C)c1CC(=O)O` [Compound 14] was 13.4 nM; that for `Cc1cc2nc(-c3ccc(Cn4nc(C)c(CC(=O)O)c4C)c(F)c3)[nH]c2cc1Cl` [Compound 109] was 1.8 nM; that for `COc1ccc2[nH]c(-c3ccc(Cn4nc(C)c(CC(=O)O)c4C)cc3)nc2n1` [Compound 44] was 9.6 nM. `CCc1nn(Cc2ccc(-c3nc4cc(Cl)c(Cl)cc4[nH]3)cc2)c(CC)c1CC(=O)O` [Compound 16]: the affinity corresponds to a Ki of 0.2 nM. This Ki is about 48-fold lower than that of the compound before. The value for `CCc1nn(Cc2ccc(-c3nc4c(F)cc(F)cc4[nH]3)cc2)c(CC)c1CC(=O)O` [Compound 50] was 1.1 nM; that for `COc1ccc2[nH]c(-c3ccc(Cn4nc(C)c(CC(=O)O)c4C)c(F)c3)nc2c1` [Compound 96] was 5.7 nM; that for `Cc1nn(Cc2ccc(-c3cc4ccc(C(F)(F)F)cc4[nH]3)cc2C(F)(F)F)c(C)c1CC(=O)O` [Compound 11] was 0.7 nM. In the case of `Cc1nn(Cc2ccc(-c3nc4cc(C(C)(C)C)ccc4[nH]3)cc2)c(C)c1CC(=O)O` [Compound 33], the inhibition constant (Ki) was determined as 0.5 nM. `CCc1nn(Cc2ccc(-c3nc4c(Cl)cc(Cl)cc4[nH]3)cc2F)c(CC)c1CC(=O)O` [Compound 104] had a Ki of 0.7 nM. The value for `Cc1nn(Cc2ccc(-c3nc4cc(C(C)(C)C)ccc4[nH]3)cc2F)c(C)c1CC(=O)O` [Compound 97] was 0.9 nM; that for `CCc1nn(Cc2ccc(-c3nc4c(C)cccc4[nH]3)cc2)c(CC)c1CC(=O)O` [Compound 51] was 2.2 nM; that for `Cc1nn(Cc2ccc(-c3nc4c(F)cc(F)cc4[nH]3)cc2)c(C)c1CC(=O)O` [Compound 36] was 5.6 nM. For `Cc1nn(Cc2ccc(-c3nc4cc(C#N)ccc4[nH]3)cc2)c(C)c1CC(=O)O` [Compound 62], the affinity corresponds to a Ki of 18.4 nM. The value for `CCc1nn(Cc2ccc(-c3nc4cc(Cl)cnc4[nH]3)cc2F)c(CC)c1CC(=O)O` [Compound 95] was 5.1 nM; that for `Cc1nn(Cc2cccc(-c3nc4cc(C(F)(F)F)ccc4[nH]3)c2)c(C)c1CC(=O)O` [Compound 110] was 287 nM; that for `COc1ccc2[nH]c(-c3ccc(Cn4nc(C)c(CC(=O)O)c4C)cc3)nc2c1` [Compound 59] was 7.6 nM.

The compound `Cc1nn(Cc2ccc(-c3nc4cc(F)ccc4[nH]3)cc2)c(C)c1CC(=O)O` [Compound 71] gave a Ki of 8.5 nM. This Ki and that of the compound before are within 1.5-fold of each other. The value for “(3,5-Diethyl-1-[2-fluoro-4-(3H-imidazo[4,5-b]pyridin-2-yl)benzyl]-1H-pyrazol-4-yl)acetic Acid [Compound 13]” was 16.2 nM; that for `Cc1nn(Cc2ccc(-c3nc4c(F)cccc4[nH]3)cc2F)c(C)c1CC(=O)O` [Compound 99] was 9.7 nM; that for `CCc1nn(Cc2ccc(-c3nc4cc(C(C)(C)C)ccc4[nH]3)cc2)c(CC)c1CC(=O)O` [Compound 68] was 0.2 nM. The value for `CCc1nn(Cc2ccc(-c3nc4ccncc4[nH]3)cc2F)c(CC)c1CC(=O)O` [Compound 90] was 60.9 nM. As to `CCc1nn(Cc2ccc(-c3nc4cc(Cl)c(Cl)cc4n3C)cc2)c(CC)c1CC(=O)O` [Compound 35], affinity was put at a Ki of 66.7 nM. This Ki and that of the compound before are within 1.5-fold of each other.

With `CCc1nn(Cc2ccc(-c3nc4cc(Br)cnc4[nH]3)cc2)c(CC)c1CC(=O)O` [Compound 57], the Ki was found to be 1.5 nM. Against the preceding compound, the Ki is about 44-fold lower. `Cc1nn(Cc2ccc(-c3nc4c(C)cccc4[nH]3)cc2)c(C)c1CC(=O)O` [Compound 63] registered a Ki of 10 nM. The value for `Cc1nn(Cc2ccc(-c3nc4ccccc4n3C)cc2)c(C)c1CC(=O)O` [Compound 30] was 753 nM; that for `Cc1nn(Cc2ccc(-c3cc4ncccc4[nH]3)cc2)c(C)c1CC(=O)O` [Compound 10] was 308 nM; that for `CCc1nn(Cc2ccc(-c3nc4cc(Cl)ccc4[nH]3)cc2)c(CC)c1CC(=O)O` [Compound 45] was 0.3 nM.

The compound `Cc1nn(Cc2ccc(-c3nc4cc(Br)cnc4[nH]3)cc2)c(C)c1CC(=O)O` [Compound 38] returned a Ki of 7.4 nM. `Cc1nn(Cc2ccc(-c3nc4c(F)c(F)ccc4[nH]3)cc2F)c(C)c1CC(=O)O` [Compound 105] had a Ki of 5.1 nM. Compound `Cc1nn(Cc2cccc(-c3cc4ccc(Cl)cc4[nH]3)c2)c(C)c1CC(=O)O` [Compound 7] yielded a Ki of 397 nM. `CCc1nn(Cc2ccc(-c3nc4cc(C#N)ccc4[nH]3)cc2F)c(CC)c1CC(=O)O` [Compound 81] returned a Ki of 2.6 nM. As to `Cc1nn(Cc2ccc(-c3nc4cncc(C)c4[nH]3)cc2F)c(C)c1CC(=O)O` [Compound 85], the Ki stood at 683 nM. This Ki is about 260-fold higher than that of the compound before.

For `Cc1nn(Cc2ccc(-c3nc4ccncc4[nH]3)cc2F)c(C)c1CC(=O)O` [Compound 72], the affinity, expressed as Ki, was 636 nM.

The compound `CCc1nn(Cc2ccc(-c3nc4nc(OC)ccc4[nH]3)cc2)c(CC)c1CC(=O)O` [Compound 64] returned a Ki of 3.1 nM. `Cc1nn(Cc2ccc(-c3cc4cccnc4[nH]3)cc2F)c(C)c1CC(=O)O` [Compound 12] returned a Ki of 155 nM. In the case of `CCc1nn(Cc2ccc(-c3nc4cc(OC)ccc4[nH]3)cc2F)c(CC)c1CC(=O)O` [Compound 75], the Ki was found to be 1 nM. For the compound `Cc1nn(Cc2ccc(-c3nc4cncnc4[nH]3)cc2)c(C)c1CC(=O)O` [Compound 70], the Ki came out at 432 nM. The value for `Cc1nn(Cc2ccc(-c3nc4cc(Cl)cnc4[nH]3)cc2)c(C)c1CC(=O)O` [Compound 40] was 12.4 nM; that for `CCc1nn(Cc2ccc(-c3nc4c(F)cccc4[nH]3)cc2)c(CC)c1CC(=O)O` [Compound 67] was 1.7 nM; that for `CCc1nn(Cc2ccc(-c3nc4cc(Br)cnc4[nH]3)cc2F)c(CC)c1CC(=O)O` [Compound 89] was 2.6 nM. `CCc1nn(Cc2ccc(-c3nc4cc(C(C)(C)C)ccc4[nH]3)cc2F)c(CC)c1CC(=O)O` [Compound 98] returned a Ki of 0.1 nM. The compound `CCc1nn(Cc2ccc(-c3nc4cncc(C)c4[nH]3)cc2)c(CC)c1CC(=O)O` [Compound 26] yielded an inhibition constant Ki of 22.6 nM.

With `Cc1nn(Cc2ccc(-c3nc4cccnc4[nH]3)cc2)c(C)c1CC(=O)O` [Compound 31], affinity was put at a Ki of 118 nM. This Ki is about 5.2-fold higher than that of the compound before. The value for `Cc1nn(Cc2ccc(-c3nc4c(C)cccc4[nH]3)cc2F)c(C)c1CC(=O)O` [Compound 93] was 12.8 nM.

`Cc1nn(Cc2ccc(-c3nc4cc(Br)ccc4[nH]3)cc2F)c(C)c1CC(=O)O` [Compound 94] came in with a Ki of 1.6 nM. The value for `CCc1nn(Cc2ccc(-c3nc4cncnc4[nH]3)cc2)c(CC)c1CC(=O)O` [Compound 37] was 85.4 nM; that for `CCc1nn(Cc2ccc(-c3nc4cc(Cl)ccc4[nH]3)cc2F)c(CC)c1CC(=O)O` [Compound 80] was 0.5 nM; that for `Cc1nn(Cc2ccc(-c3nc4cc(F)c(Cl)cc4[nH]3)cc2)c(C)c1CC(=O)O` [Compound 53] was 2.3 nM.

Regarding `Cc1nn(Cc2ccc(-c3cc4cc(Cl)ccc4[nH]3)cc2)c(C)c1CC(=O)O` [Compound 3], affinity was put at a Ki of 4.2 nM. In turn, `Cc1ccc2[nH]c(-c3ccc(Cn4nc(C)c(CC(=O)O)c4C)c(F)c3)nc2c1` [Compound 91] yielded a Ki of 3.7 nM. Compound `CCc1nn(Cc2ccc(-c3nc4ccncc4[nH]3)cc2)c(CC)c1CC(=O)O` [Compound 61] displayed a Ki of 56.4 nM.

With `CCc1nn(Cc2ccc(-c3nc4cc(Br)ccc4[nH]3)cc2F)c(CC)c1CC(=O)O` [Compound 87], the Ki amounted to 0.4 nM.

The values are drawn from patent publication US9206164B2, “Pyrazole compounds as CRTH2 antagonists” (Boehringer Ingelheim International GmbH, priority 2011, dated 2015).
